The results in this text go back to US10647680B2, “Urea compound, preparation method therefor and medical use thereof” (Ancureall Pharmaceutical (Shanghai) Co., Ltd., priority 2016, dated 2020).

In assay [1] the test system is RAMOS (positive expression of Brutons tyrosine protein kinase). Briefly: In vitro growth inhibition (GI50), RAMOS. The class given is cell-based. The following applies: Homo sapiens, Cell lines of leukemia, read-out: GI 50 Ramos BTK.
Assay [2] concerns A375 (BRAF V600E mutant type). Briefly: In vitro growth inhibition (GI50), A375. Type of assay: cell-based. The following applies: Homo sapiens, A-375. The source says: Tumor cell line is an effective cell model for studying the inhibition of tumor cell growth or proliferation in vitro. In the present invention, a representative tumor cell line was selected to determine the cell growth inhibition activity of the present compound. All cell lines used were from ATCC, DSMZ, and the Cell Bank of the Chinese Academy of Sciences. Cell culture conditions and methods were in accordance with the requirements of each cell line. Cells were subcultured in vitro for no more than 3 passages each time, and as required, single-clone purification and identification of cell lines could be carried out.
The cell culture media used were RPMI1640 (Gibco), MEM (Gibco), McCOY'S5A (Gibco), and IMDM (Gibco). The complete medium was prepared by supplement with 5˜20% fetal calf serum (Gibco), 1% double-antibiotics (10000 units/mL penicillin and 10000 units/mL), 2 mM glutamine or 1 mM sodium pyruvate, respectively.
Human large cell lung cancer cell NCI-H460 (KRAS […] mutant type, ATCC), human non-small cell lung cancer cell line H1299 (NRAS Q61K mutant type, ATCC), human melanoma cell line A375 (BRAF V600E mutant type, Shanghai Cell Bank of Chinese Academy of Sciences), human colon cancer cell line HCT116 (KRAS G13D mutant type, Shanghai Cell Bank, Chinese Academy of Sciences) were cultured in a complete medium of 1×RPMI1640 (10% FBS), respectively. Human non-small cell lung cancer cells A549 (KRAS G12S mutant type, Shanghai Cell Bank, Chinese Academy of Sciences) were cultured in a complete medium of 1× Ham's supplemented with 10% FBS, 1% double antibody, and 2 mM glutamine.
Adherent cells were digested with 0.25% pancreatin-EDTA (Gibco). The suspension cells were collected by centrifugation. The supernatant was discarded and the cell pellet was resuspended and counted. Different cell concentrations (5˜10×10^4 cells/mL) were prepared according to the growth cycle of each cell line and then seeded on a 96-well plate (Corning), 100 μL/well. The cells were incubated overnight at 37° C., 5% CO2. The compounds were added to the cells on the second day with 2 wells in parallel. The final concentration of organic solvent shall not exceed 1%. The cells were continually incubated for 3 to 5 days, and then subjected to MTT assay.
The compound of the present invention and the control compound were dissolved in DMSO (Sigma) respectively, with the purity of more than 98%. The compound was stored in a concentration of 10 mM at −20° C. and diluted to 2- or 10-fold series prior to use.
Dojindo CCK8 reagent kit was used as MTT assay. THERMO […] FC meter was used as microplate reader.
For adherent cells, culture medium was removed and immediately replaced with the fresh prepared medium which contains 10% CCK8 reagent (100 μL/well). For the suspension cells, CCK8 was directly added to 10% of the final concentration. The cells were continually incubated for 1˜4 h. When a dark yellow color could be observed in the solvent control wells, the absorbance value at OD450 nm was measured and the cell growth rate was calculated according to the following formula: Cell Growth Rate (%)=100*(T−T0)/(C−T0) T=optical density of drug treatment cell well—optical density of blank control well; T0=optical density of cell well before drug treatment—optical density of blank control well; C=optical density of cell well of solvent control group—optical density of blank control well. The concentration value of 50% inhibition of cell growth (GI50) was calculated according to the drug concentration and cell growth rate curve. The experiment was independently repeated 1˜3 times, and subject to biological statistical analysis. 4. Experimental Results
Tumor cell growth inhibition test was performed by selecting representative compounds (compounds 4, 11, 12, 16, 27, 68, 71, 77, 79, 89 and 116 of the present invention). The initial concentration of the compound was 5,000 nM, then it was serially diluted by 2-fold or 10-fold to 0.01 nM. […]

Take `CC(C)(C)c1cc(NC(=O)Nc2ccc(-n3cnc4cc(O)ccc43)cc2)no1` [Compound 4, 1-(5-tert-butyl-isoxazol-3-yl)-3-[4-(5-hydroxy-benzimidazol-1-yl)-phenyl]-urea]: the values for the GI50 in assay [1] and in assay [2] were 100 to 1000 nM and more than 2500 nM, respectively.

As to `CC(C)(C)c1cc(NC(=O)Nc2ccc(-n3cnc4cc(OCCO)ccc43)cc2)no1` [Compound 11, 1-(5-tert-butyl-isoxazol-3-yl)-3-{4-[5-(2-hydroxy-ethoxyl)-benzimidazol-1-yl]-phenyl]-urea], the GI50 in assay [1] is more than 1000 nM; in assay [2], more than 2500 nM.

`CC(C)(C)c1cc(NC(=O)Nc2ccc(-n3cnc4cc(OCCN5CCOCC5)ccc43)cc2)no1` [Compound 16, 1-(5-tert-butyl-isoxazol-3-yl)-3-{4-[5-(2-morpholin-4-yl-ethoxyl)-benzimidazol-1-yl]-phenyl}-urea]: the results for the GI50 in assay [1] and in assay [2] were more than 1000 nM and more than 2500 nM, respectively.

Turning to `CC(C)(C)c1cc(NC(=O)Nc2ccc(-n3cnc4ccc(OCCN5CCOCC5)cc43)cc2)no1` [Compound 27, 1-(5-tert-butyl-isoxazol-3-yl)-3-{4-[6-(2morpholin-4-yl-ethoxyl)-benzimidazol-1-yl]-phenyl}-urea], the GI50 is more than 1000 nM in assay [1] and more than 2500 nM in assay [2].

Turning to `CC(C)(C)c1cc(NC(=O)Nc2ccc(-n3cnc4ccccc43)cc2)[nH]n1` [Compound 68, 1-(4-benzimidazol-1-yl-phenyl)-3-(5-tert-butyl-2H-pyrazol-3-yl)-urea], the GI50 in assay [1] is more than 1000 nM; in assay [2], more than 2500 nM.

Turning to `COc1ccc2c(c1)ncn2-c1ccc(NC(=O)Nc2cc(C(C)(C)C)n[nH]2)cc1` [Compound 71, 1-(5-tert-butyl-2H-pyrazol-3-yl)-3-[4-(5-methoxyl-benzimidazol-1-yl)-phenyl]-urea], the figures for the GI50 in assay [1] and in assay [2] were more than 1000 nM and more than 2500 nM, respectively.

In the case of `COCCOc1ccc2c(c1)ncn2-c1ccc(NC(=O)Nc2cc(C(C)(C)C)n[nH]2)cc1` [Compound 77, 1-(5-tert-butyl-2H-pyrazol-3-yl)-3-{4-[5-(2-methoxyl-ethoxyl)-benzimidazol-1-yl]-phenyl}-urea], the GI50 in assay [1] is more than 1000 nM; in assay [2], more than 2500 nM.

For the compound `CC(C)(C)c1cc(NC(=O)Nc2ccc(-n3cnc4cc(OCCO)ccc43)cc2)[nH]n1` [Compound 79, 1-(5-tert-butyl-2H-pyrazol-3-yl)-3-{4-[5-(2-hydroxy-ethoxyl)-benzimidazol-1-yl]-phenyl]urea], the GI50 in assay [1] was more than 1000 nM; in assay [2], more than 2500 nM.

As to `CC(C)(C)c1cc(NC(=O)Nc2ccc(-n3cnc4cc(OCCN5CCOCC5)ccc43)cc2)[nH]n1` [Compound 89, 1-(5-tert-butyl-2H-pyrazol-3-yl)-3-{4-[5-(2-morpholin-4-yl-ethoxyl)-benzimidazol-1-yl]-phenyl}-urea], the GI50 in assay [1] is more than 1000 nM; in assay [2], more than 2500 nM.

For `CC(C)(C)c1cc(N)n(C(=O)Nc2ccc(-n3cnc4ccccc43)cc2)n1` [Compound 116, 5-amino-3-tert-butyl-pyrazol-1-carboxylic acid (4-benzimidazol-1-yl-phenyl)-amide], the results for the GI50 in assay [1] and in assay [2] were more than 1000 nM and more than 2500 nM, respectively.
